Experimental data from patent US10280171B2, “Heterocyclic inhibitors of PTPN11” (priority 2016, dated 2019).
Like-named read-outs stand apart in the source and are kept apart here.

Tests used:
[1] = test system: BT474 human breast carcinomas cell line; assay: In Vivo Tumor Models: BT474 xenograft; conditions: BT474 (HER2+) xenograft in mouse, 100 mg/kg once per day oral gavage, 5 days on/2 days off, 4 weeks
Description: Xenografts were initiated with BT474 human breast carcinomas cell line and maintained by serial subcutaneous transplantation in CB-17/SCID mice (Charles River). On the day of tumor implant, each test mouse received a 1 mm^3 BT474 fragment implanted subcutaneously in the right flank, and tumor growth was monitored as the average size approached the target range of 100 to 150 mm3. About three weeks post-implantation, the animals were randomized and grouped based on tumor volume and mouse body weight. […] Tumors were measured in two dimensions using calipers, and volume was calculated using the formula: Tumor Volume (mm^3)=[…].
Results are found in FIGS. 1 and 2.

[2] = test system: Phospho-ERK levels in KYSE-520 cells; assay: ERK Phosphorylation (Phospho-ERK) Target Engagement Assay (HTRF); format: cell-based; conditions: Homo sapiens, 2 hr compound incubation, phospho-ERK1/2 HTRF kit, read-out: pERK target engagement assay Avg IC50
Description: KYSE-520 cells (10 k cells/well) are plated onto 384-well plate in 20 uL of medium (RPMI-1640, without phenol red, containing 10% FBS) and incubated at 37° C., 5% CO2 16 h. DMSO (control) or increasing concentrations of compounds are diluted in medium, added to the 384-well plate (10 uL/well, final DMSO concentration of 0.5-1%), and cells are then incubated with compounds for 2 hr. Phospho-ERK levels are measured using a TR-FRET based phospho-ERK1/2 HTRF kit (CisBio, 64ERKPEH) following manufacturer's recommendations, and fluorescence signal was measured at 665 nm and 620 nm using Synergy Neo plate reader. Dose-response curves were analyzed using IC50 regression curve fitting (GeneData Screener). Curves were normalized to a high controls without inhibitor, and low controls with 1 μM of selumetinib.

[3] = target: PTPN11-E76K mutant enzyme (Homo sapiens (Human), UniProt Q06124, E76K); assay: PTPN11 Enzymatic Assay (DiFMUP phosphatase activity); format: biochemical; conditions: DiFMUP 50 μM, 30 min preincubation
Description: Reaction was initiated by addition of DiFMUP (50 μM) at room temperature in 384-well black plate with a final reaction volume of 20 uL in assay buffer. […] Dose-response curves were analyzed using IC50 regression curve fitting (GeneData Screener). Curves were normalized to a high controls without inhibitor, and low controls without enzyme.

[4] = test system: Phospho-ERK levels in KYSE-520 cells; assay: pERK AlphaScreen Protocol; format: cell-based; conditions: KYSE-520 cells, 2 hr compound incubation, phospho-ERK1/2 AlphaScreen SureFire, read-out: PERK Avg IC50
Outline: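 After overnight growth at 10 k cells/well in RPMI-1640 with 10% FBS, KYSE-520 cells received compound dilutions for 2 h at 1% final DMSO.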

[5] = full length PTPN11-E76K mutant enzyme 250 pM, read-out: PTPN11-E76K Avg IC50

PTPN11-E76K mutant enzyme, sequence (Q06124 whole entry E76K): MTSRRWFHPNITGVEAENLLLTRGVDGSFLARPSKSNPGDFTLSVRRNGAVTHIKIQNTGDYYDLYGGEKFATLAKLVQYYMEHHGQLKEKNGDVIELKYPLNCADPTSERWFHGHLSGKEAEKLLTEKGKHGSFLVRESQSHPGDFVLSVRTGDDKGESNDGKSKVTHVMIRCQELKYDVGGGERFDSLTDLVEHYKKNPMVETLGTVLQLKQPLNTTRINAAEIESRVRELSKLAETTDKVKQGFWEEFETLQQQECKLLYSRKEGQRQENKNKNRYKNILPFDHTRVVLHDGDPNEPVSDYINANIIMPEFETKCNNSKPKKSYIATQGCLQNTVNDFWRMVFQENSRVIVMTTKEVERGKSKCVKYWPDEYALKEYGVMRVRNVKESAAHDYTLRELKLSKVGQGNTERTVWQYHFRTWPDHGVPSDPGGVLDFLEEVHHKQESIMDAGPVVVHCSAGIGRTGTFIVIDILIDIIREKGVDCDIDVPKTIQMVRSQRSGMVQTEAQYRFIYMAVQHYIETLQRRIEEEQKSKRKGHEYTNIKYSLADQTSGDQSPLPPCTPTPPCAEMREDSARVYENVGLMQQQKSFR

Compound | IC50 [3, 5] | IC50 ([4]; Homo sapiens, KYSE-520, 2 h) | other results
CC1(N)CCN(c2cnc3c(-c4cccc(Cl)c4Cl)n[nH]c3n2)CC1 [Example 1, 1-(3-(2,3-dichlorophenyl)-1H-pyrazolo[3,4-b]pyrazin-6-yl)-4-methylpiperidin-4-amine] | – | – | suppression of tumor growth [1]: significant suppression of tumor growth; tolerability of dose [1]: tolerated; IC50 [2]: 49 nM
CC1(CN)CCN(c2cnc3c(-c4cccc(Cl)c4Cl)n[nH]c3n2)CC1 [Example 4, (1-(3-(2,3-dichloro-phenyl)-1H-pyrazolo[3,4-b]-pyrazin-6-yl)-4-methylpiperidin-4-yl)methanamine] | – | – | IC50 [2]: 73 nM
Clc1cccc(-c2n[nH]c3nc(N4CCC5(CCNC5)CC4)cnc23)c1Cl [Example 2, 8-(3-(2,3-dichloro-phenyl)-1H-pyrazolo[3,4-b]-pyrazin-6-yl)-2,8-diazaspiro-[4.5]decane] | 787 nM | – | IC50 [2]: 169 nM
N[C@@H]1[C@H]2CN(c3cnc4c(-c5cccc(Cl)c5Cl)n[nH]c4n3)C[C@@H]12 [Example 3, (1R,5S,6S)-3-(3-(2,3-dichlorophenyl)-1H-pyrazolo[3,4-b]-pyrazin-6-yl)-3-aza-bicyclo[3.1.0]hexan-6-amine] | 1070 nM | – | IC50 [2]: 322 nM
CNC1(C)CCN(c2cnc3c(-c4cccc(Cl)c4Cl)n[nH]c3n2)CC1 [Example 6, 1-(3-(2,3-Dichlorophenyl)-1H-pyrazolo[3,4-b]-pyrazin-6-yl)-N,4-dimethylpiperidin-4-amine] | 2 nM | – | IC50 [2]: 124 nM
CC1(CN)CCN(c2cnc3c(-c4cc(Cl)cc(Cl)c4)n[nH]c3n2)CC1 [Example 11, (1-(3-(3,5-dichloro-phenyl)-1H-pyrazolo[3,4-b]-pyrazin-6-yl)-4-methylpiperidin-4-yl) methanamine] | 632 nM | 1170 nM | –
CC1(CN)CCN(c2cnc3c(-c4ccnc(N)c4Cl)n[nH]c3n2)CC1 [Example 107, 4-(6-(4-(Aminomethyl)-4-methylpiperidin-1-yl)-1H-pyrazolo[3,4-b]pyrazin-3-yl)-3-chloropyridin-2-amine] | 162 nM | 246 nM | –
CC1(N)CCN(c2cnc3c(-c4cccc(Cl)c4)n[nH]c3n2)CC1 [Example 10, 1-(3-(3-chloro-phenyl)-1H-pyrazolo[3,4-b]-pyrazin-6-yl)-4-methylpiperidin-4-amine] | 333 nM | 172 nM | –
N[C@@H]1CCCC12CCN(c1cnc3c(-c4ccc(Cl)cc4)n[nH]c3n1)CC2 [Example 17, (R)-8-(3-(4-chloro-phenyl)-1H-pyrazolo[3,4-b]-pyrazin-6-yl)-8-aza-spiro[4.5]decan-1-amine] | 118 nM | 82 nM | –
NC1C(F)(F)CCC12CCN(c1cnc3c(-c4cccc(Cl)c4Cl)n[nH]c3n1)CC2 (single isomer, unassigned) [Example 65B, 8-(3-(2,3-Dichlorophenyl)-1H-pyrazolo[3,4-b]pyrazin-6-yl)-2,2-difluoro-8-azaspiro[4.5]decan-1-amine] | – | – | IC50 [4]: 165 nM; IC50 ([3]; PTPN11-E76K Avg IC50, full length PTPN11-E76K mutant enzyme 250 pM): 471 nM
CC1(CN)CCN(c2cnc3c(-c4cccnc4Cl)n[nH]c3n2)CC1 [Example 36, (1-(3-(2-chloro-pyridin-3-yl)-1H-pyrazolo[3,4-b]-pyrazin-6-yl)-4-methylpiperidin-4-yl) methanamine] | 967 nM | 320 nM | –
N[C@@H]1COCC12CCN(c1cnc3c(-c4ccnc(O)c4Cl)n[nH]c3n1)CC2 [Example 109, (S)-4-(6-(4-Amino-2-oxa-8-azaspiro[4.5]decan-8-yl)-1H-pyrazolo[3,4-b]pyrazin-3-yl)-3-chloropyridin-2-ol] | 1100 nM | 10000 nM | –
NCC1(O)CCN(c2cnc3c(-c4ccccc4Cl)n[nH]c3n2)CC1 [Example 60, 4-(aminomethyl)-1-(3-(2-chlorophenyl)-1H-pyrazolo[3,4-b]-pyrazin-6-yl)-piperidin-4-ol] | 918 nM | 317 nM | –
COc1cc(Cl)cc(-c2n[nH]c3nc(N4CCC(C)(CN)CC4)cnc23)c1 [Example 35, (1-(3-(3-chloro-5-methoxyphenyl)-1H-pyrazolo[3,4-b]-pyrazin-6-yl)-4-methylpiperidin-4-yl) methanamine] | 304 nM | 704 nM | –
CC1(N)CCN(c2cnc3c(-c4ccnc(O)c4Cl)n[nH]c3n2)CC1 [Example 117, 4-(6-(4-Amino-4-methylpiperidin-1-yl)-1H-pyrazolo[3,4-b]pyrazin-3-yl)-3-chloropyridin-2-ol] | 1940 nM | 4780 nM | –
CNc1nccc(-c2n[nH]c3nc(N4CCC5(CCC[C@H]5N)CC4)cnc23)c1Cl [Example 111, (R)-8-(3-(3-Chloro-2-(methylamino)pyridin-4-yl)-1H-pyrazolo[3,4-b]pyrazin-6-yl)-8-azaspiro[4.5]decan-1-amine] | 43 nM | 20 nM | –
CC1(N)CCN(c2cnc3c(-c4ccc(Cl)cc4)n[nH]c3n2)CC1 [Example 15, 1-(3-(4-Chlorophenyl)-1H-pyrazolo[3,4-b]pyrazin-6-yl)-4-methylpiperidin-4-amine] | 140 nM | 103 nM | –
CC1(N)CCN(c2cnc3c(-c4cccc(F)c4Cl)n[nH]c3n2)CC1 [Example 24, 1-(3-(2-chloro-3-fluorophenyl)-1H-pyrazolo[3,4-b]-pyrazin-6-yl)-4-methyl-piperidin-4-amine] | 204 nM | 142 nM | –
CC1(CN)CCN(c2cnc3c(-c4ccncc4Cl)n[nH]c3n2)CC1 [Example 31, (1-(3-(3-chloro-pyridin-4-yl)-1H-pyrazolo[3,4-b]-pyrazin-6-yl)-4-methylpiperidin-4-yl) methanamine] | 929 nM | 710 nM | –
CC(N)C1(C)CCN(c2cnc3c(-c4ccnc(N)c4Cl)n[nH]c3n2)CC1 (single isomer, unassigned) [Example 113a, 4-(6-(4-(1-Aminoethyl)-4-methylpiperidin-1-yl)-1H-pyrazolo[3,4-b]pyrazin-3-yl)-3-chloropyridin-2-amine] | 180 nM | 100 nM | –
COc1cccc(-c2n[nH]c3nc(N4CCC(C)(CN)CC4)cnc23)c1Cl [Example 27, (1-(3-(2-chloro-3-methoxy phenyl)-1H-pyrazolo[3,4-b]pyrazin-6-yl)-4-methylpiperidin-4-yl) methanamine] | 80 nM | 55 nM | –
CC1(CN)CCN(c2cnc3c(-c4ccc(Cl)c(Cl)c4)n[nH]c3n2)CC1 [Example 13, (1-(3-(3,4-dichloro-phenyl)-1H-pyrazolo[3,4-b]-pyrazin-6-yl)-4-methylpiperidin-4-yl) methanamine] | 158 nM | 562 nM | –
Nc1nccc(-c2n[nH]c3nc(N4CCC5(CC4)COC[C@H]5N)cnc23)c1Cl [Example 116, (S)-8-(3-(2-Amino-3-chloropyridin-4-yl)-1H-pyrazolo[3,4-b]pyrazin-6-yl)-2-oxa-8-azaspiro[4.5]decan-4-amine] | 132 nM | 483 nM | –
CC1(N)CCN(c2cnc3c(-c4cc(Cl)cc(Cl)c4)n[nH]c3n2)CC1 [Example 12, 1-(3-(3,5-dichloro-phenyl)-1H-pyrazolo[3,4-b]-pyrazin-6-yl)-4-methylpiperidin-4-amine] | 404 nM | 623 nM | –
